Assay results from patent US8598313B2, “Compositions for ameliorating cell proliferative disorders and methods of making and using them” (priority 2010, dated 2013).

Legend:
cancer cell lines = conditions: cytotoxicity SAR; cited from earlier work
[1] = test system: NCI H-460 human lung tumor cells; assay: Cytotoxicity in NCI H-460 human lung tumor cells, MTT reduction; type: cell-based
Method: Cytotoxicity was measured in NCI H-460 human lung tumor cells with cell viability being determined by MTT reduction.^[23] Cells were seeded in 96-well plates at 6000 cells/well in 180 μL of medium. After 24 h, the test chemicals were dissolved in DMSO and diluted into medium without fetal bovine serum and then added at […]. DMSO was less than 0.5% of the final concentration. After 48 h, the medium was removed and cell viability determined.

Molecule	loss of activity compared to apratoxin A (cancer cell lines)	activity compared to apratoxin A (cancer cell lines)	also measured
CC[C@H](C)[C@@H]1NC(=O)[C@H](C)N(C)C(=O)[C@H](Cc2ccc(OC)cc2)NC(=O)/C(C)=C/[C@H]2CSC(=N2)[C@@H](C)[C@@H](O)C[C@H](C)C[C@@H](C(C)(C)C)OC(=O)[C@@H]2CCCN2C1=O [apratoxin B]	30 to 40 fold		
CC[C@H](C)[C@H]1C(=O)N2CCC[C@H]2C(=O)O[C@H](C(C)C)C[C@@H](C)C[C@H](O)[C@H](C)C2=N[C@@H](/C=C(\C)C(=O)N[C@@H](Cc3ccc(OC)cc3)C(=O)N(C)[C@@H](C)C(=O)N1C)CS2 [apratoxin C]	2 fold		
CC[C@H](C)[C@H]1C(=O)N2CCC[C@H]2C(=O)O[C@H]([C@@H](C)CC(C)(C)C)C[C@@H](C)C[C@H](O)[C@H](C)C2=N[C@@H](/C=C(\C)C(=O)N[C@@H](Cc3ccc(OC)cc3)C(=O)N(C)[C@@H](C)C(=O)N1C)CS2 [apratoxin D]		roughly equivalent activity	
COc1ccc(C[C@@H]2NC(=O)/C(C)=C/C3CSC(=N3)[C@@H](C)[C@@H](O)C[C@H](C)C[C@@H](C(C)(C)C)OC(=O)[C@H](C)N(C)C(=O)[C@H](C(C)C)N(C)C(=O)[C@H](C)N(C)C2=O)cc1 (stereo partly shown) [apratoxin G]			IC50 ([1]; H-460 cancer cells, MTT, 48 h): 0.014 µM; reduction in activity compared to apratoxin F ([1]; N-methyl isoleucine exchanged for N-methyl valine): 7 fold
(E)-34,35-dehydro-apratoxin A	72-230 fold		
apratoxin E		only a modest loss of activity	
